Assay results taken from patent US20240109900A1, “AZABICYCLIC SHP2 INHIBITORS” (IRBM S.P.A., priority 2021, published 2024).
Where two headings read alike, the source gives them in different places.

Legend:
[1] = target: SHP-2 enzyme (Met1-Leu525) (Homo sapiens (Human), UniProt Q06124); experiment: SHP2 inhibition enzymatic assay; type: biochemical; details: 0.5 nM SHP-2 activated by 500 nM IRS1 peptide, 75 μM DiFMUP substrate; read-out: SHP2wt-IC50
How it was run: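 SHP-2 (Met1-Leu525), 0.5 nM, activated with 500 nM IRS1 bis-phosphopeptide, preincubated 30 min with compounds in HEPES pH 7.2 buffer with 5 mM DTT. 75 μM DiFMUP added for 30 min at room temperature, stopped with bpV; fluorescence read. IC50 from four-parameter logistic fit of % inhibition.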

[2] = system: ERK phosphorylation in KYSE-520 cells; experiment: Phospho-ERK cellular assay; type: cell-based; details: KYSE-520 cells, 2 h at 37° C., phospho-ERK1/2 (Thr202/Tyr204) TR-FRET, read-out: PERK IC50
How it was run: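 TR-FRET read-out of ERK1/2 Thr202/Tyr204 phosphorylation was taken after overnight antibody incubation at room temperature. Before that, KYSE-520 cells were treated 2 h at 37 °C with compound dilutions and lysed 30 min. Percent inhibition relative to vehicle and cell-free wells was fitted four-parametrically to give IC50.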

Chain of SHP-2 enzyme (Met1-Leu525) (Q06124 1-525): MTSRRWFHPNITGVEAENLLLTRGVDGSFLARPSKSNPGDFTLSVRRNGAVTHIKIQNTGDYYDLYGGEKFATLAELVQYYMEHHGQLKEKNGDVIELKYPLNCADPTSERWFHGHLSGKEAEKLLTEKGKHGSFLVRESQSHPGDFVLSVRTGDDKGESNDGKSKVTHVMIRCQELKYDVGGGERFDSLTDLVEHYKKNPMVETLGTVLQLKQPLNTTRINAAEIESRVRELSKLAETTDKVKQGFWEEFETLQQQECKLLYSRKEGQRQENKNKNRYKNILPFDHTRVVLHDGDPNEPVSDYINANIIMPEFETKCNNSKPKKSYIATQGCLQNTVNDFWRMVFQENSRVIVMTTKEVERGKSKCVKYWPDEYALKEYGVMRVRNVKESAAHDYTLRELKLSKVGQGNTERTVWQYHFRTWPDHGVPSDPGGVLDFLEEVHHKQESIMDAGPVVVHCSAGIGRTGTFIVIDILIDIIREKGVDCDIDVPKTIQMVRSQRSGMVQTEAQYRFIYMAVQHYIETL

IC50 [1] | IC50 ([2]; Homo sapiens, KYSE-520, 2 h) | IC50 [2] | Compound
< 500 nM | < 1000 nM | – | COc1cccc2c(-c3n[nH]c4nc(N5CC[C@@H]6[C@H](C5)[C@@]6(CN)c5ccccc5F)cnc34)ccnc12 [Example 166, ((1S,6R,7R)-7-(2-fluorophenyl)-3-(3-(8-methoxyquinolin-4-yl)-1H-pyrazolo[3,4-b]pyrazin-6-yl)-3-azabicyclo[4.1.0]heptan-7-yl)methanamine]
< 500 nM | < 1000 nM | – | Cc1cc(C2(CN)C3CCN(c4cnc5c(N6CCCc7ncccc76)n[nH]c5n4)CC32)no1 (centres unmarked) [Example 60, (3-(3-(3,4-dihydro-1,5-naphthyridin-1(2H)-yl)-1H-pyrazolo[3,4-b]pyrazin-6-yl)-7-(5-methylisoxazol-3-yl)-3-azabicyclo[4.1.0]heptan-7-yl)methanamine]
< 500 nM | – | < 1000 nM | Cc1csc([C@@]2(CN)[C@@H]3CN(c4cnc5c(-c6ccn7nccc7c6Cl)n[nH]c5n4)C[C@@H]32)n1 [Example 458]
< 500 nM | < 1000 nM | – | Cc1cc([C@@]2(CN)[C@@H]3CCN(c4cnc5c(-c6ccc(F)c7ncccc67)c[nH]c5n4)C[C@@H]32)no1 [Example 156, ((1S,6R,7S)-3-(7-(8-fluoroquinolin-5-yl)-5H-pyrrolo[2,3-b]pyrazin-3-yl)-7-(5-methylisoxazol-3-yl)-3-azabicyclo[4.1.0]heptan-7-yl)methanamine]
< 500 nM | < 1000 nM | – | Cc1cc([C@@]2(CN)[C@@H]3CCN(c4cnc5c(-c6ccc7nn(C)c(Cl)c7c6Cl)n[nH]c5n4)C[C@@H]32)no1 [Example 44, ((1S,6R,7S)-3-(3-(3,4-dichloro-2-methyl-2H-indazol-5-yl)-1H-pyrazolo[3,4-b]pyrazin-6-yl)-7-(5-methylisoxazol-3-yl)-3-azabicyclo[4.1.0]heptan-7-yl)methanamine]

Continued, compound first:

Compound | IC50 [1] | IC50 ([2]; Homo sapiens, KYSE-520, 2 h) | IC50 [2]
COCCn1cc2c(Cl)c(-c3n[nH]c4nc(N5CC[C@@H]6[C@H](C5)[C@@]6(CN)c5ccccc5F)cnc34)ccc2n1 [Example 393, ((1S,6R,7R)-3-(3-(4-chloro-2-(2-methoxyethyl)-2H-indazol-5-yl)-1H-pyrazolo[3,4-b]pyrazin-6-yl)-7-(2-fluorophenyl)-3-azabicyclo[4.1.0]heptan-7-yl)methanamine] | < 500 nM | < 1000 nM | –
NC[C@]1(c2ccccc2F)[C@@H]2CCN(c3cnc4c(-c5ccc6nn(CC(N)=O)cc6c5Cl)n[nH]c4n3)C[C@@H]21 [Example 324, 2-(5-(6-((1S,6R,7R)-7-(aminomethyl)-7-(2-fluorophenyl)-3-azabicyclo[4.1.0]heptan-3-yl)-1H-pyrazolo[3,4-b]pyrazin-3-yl)-4-chloro-2H-indazol-2-yl)acetamide] | < 500 nM | < 1000 nM | –
Cn1cc2c(Cl)c(-c3n[nH]c4nc(N5C[C@@H]6[C@H](C5)[C@@]6(CN)c5nc(C(F)(F)F)cs5)n(C)c(=O)c34)ccc2n1 [Example 471, 6-((1R,5S,6r)-6-(aminomethyl)-6-(4-(trifluoromethyl)thiazol-2-yl)-3-azabicyclo[3.1.0]hexan-3-yl)-3-(4-chloro-2-methyl-2H-indazol-5-yl)-5-methyl-1,5-dihydro-4H-pyrazolo[3,4-d]pyrimidin-4-one] | < 500 nM | < 1000 nM | –
NC[C@]1(c2ccccc2F)[C@@H]2CCN(c3cnc4c(-c5ccc(C(N)=O)cc5F)n[nH]c4n3)C[C@@H]21 [Example 367, 4-(6-((1S,6R,7R)-7-(aminomethyl)-7-(2-fluorophenyl)-3-azabicyclo[4.1.0]heptan-3-yl)-1H-pyrazolo[3,4-b]pyrazin-3-yl)-3-fluorobenzamide] | < 500 nM | < 1000 nM | –
Cc1csc([C@@]2(CN)[C@@H]3CN(c4cnc5c(-c6ccc7c(cnn7C(F)F)c6Cl)n[nH]c5n4)C[C@@H]32)n1 [Example 506] | < 500 nM | – | < 1000 nM
